Entries after “also recorded” stand apart in the source; their conditions may differ. Where no end group is shown, it is not given here. The star is where a group is joined. FITC = O=C1OC2(c3ccc(O)cc3Oc3cc(O)ccc32)c2ccc(NC(=S)*)cc21
How the values were obtained:
[1] = target: T1, human full length HGF (Homo sapiens, UniProt P14210); test: SPR affinity and kinetics; assay type: binding; settings: Biacore X100, CM5 chip
T1 construct: purchased Sino Biological Inc. 10463- NHAC-A
Procedure: (§1) To pre-assess the binding ability of peptide to HGF, peptides were coated on the fluorescence plates and incubated with HGF. The well coated with HGP-1 had at least 1500 times higher RFU than the one with SP-H1. […] In order to obtain a precise affinity data of HGP-1, the affinity and kinetics of HGP-1 against HGF was detected by SPR technique (Figure 3a). HGF was immobilized on the surface of a CM5 chip. […] Different concentrations of HGP-1 were injected over the surface of the chip followed by dissociation in buffer without peptide.
Kinetic (ka and kd) and affinity constant (KD) of soluble peptide were determined by surface plasmon resonance technique on a Biacore X100 instrument (GE healthcare). The research-grade CM5 sensor chip was activated following the process which was recommended in the amino coupling reagent kit. Human full length HGF was dissolved in PBS and diluted to a suitable concentration by 20 mM NaCOOH buffer (pH4.0) and immobilized on the chip, and 2000 resonance units were immobilized. The remaining reactive groups were inactivated by ethanolamine. The peptide was dissolved and diluted by HBS-EP ([…], 150 mM NaCl, 3 mM EDTA-Na2 and 0.005% P20, pH7.4). Samples composed of concentrations ranging from 0 to 100 μM of peptides were injected over the protein surface. […] Ka, Kd and KD were calculated by Biacore X100 Evaluation software.

[2] = system: A549 cells; assay type: cell-based, human
Procedure: A549 cells were seeded in a 96-well plate at a density of 7000 cells per well. After overnight culture, cells were starved with serum free DMEM medium for 48 hours. […] After cultured for 4 days, the cell culture medium was changed with fresh medium containing 0.5 mg/mL 3-(4, 5-Dimethylthiazol-2-yl)-2, 5-diphenyltetrazolium bromide (MTT) solution for another 4 hours incubation at 37°C, in 5% CO2. Then, medium was removed and cells were lysed with dimethyl sulfoxide. The absorption of the solution in each well was measured at 490 nm on a VECTOR X4 Multilabel Plate Reader. IC50 value was also determined and calculated by GraphPad Prism 5.

[3] = system: A549 cells; test: MTT cytotoxicity in HGF-free environment; settings: 61.5 nM, 615 nM, 3.075 μM; 4-day, medium with 10% FBS; n = 4
Procedure: MTT assay was also used to assess the cytotoxicity of peptides after 4-day incubation with peptides at different concentrations in the medium with 10% FBS. The cells were seeded in the 96-well plate at density of 2000 cells per well.

[4] = system: HGF; test: Binding of HGF to peptides displayed on bacteria, regular vs stringent washing, flow cytometry; design: species or system human; settings: PE-A fluorescence; for binding to HGF in washed group: displayed on bacteria, washed (PBS pH 7.4, 3 times, 4°C, 10 min) vs regular washing
Procedure: Peptide physicochemical properties were preliminarily analyzed with bacteria clones. To evaluate the binding ability of peptides on the surface of bacteria to HGF, the PE-A fluorescence intensity of each clone with different wash procedures were determined by flow cytometry. Bacteria clones undergoing regular or stringent washing procedures after incubation with HGF were prepared. […] Bacteria clones were subcultured and induced as described before. Then, 10^7 bacteria of each clone were incubated with biotinylated HGF referring to sorting procedure. After incubating with HGF, bacteria were divided into two groups. The ‘original’ group was washed referring to sorting procedure, and the ‘washed’ group would have a tough washing. After centrifuged at 3000 × g for 5 minutes, bacteria in ‘washed’ group were resuspended by 1 mL phosphate buffered saline (PBS, PH 7.4) and inverted at 4°C for 10 minutes. The washing steps were repeated for 3 times. Samples from two groups were analyzed by flow cytometry.

[5] = system: HGF; test: ELISA, peptides coated on fluorescence plates and incubated with HGF; assay type: binding, human; settings: peptide coated, incubated with HGF
Procedure: as §1

[6] = system: MDA-MB-435s cells; test: Wound healing (scratch) migration assay with HGF; assay type: cell-based, human; settings: HGF 0.625 nM, 2-day treatment
Procedure: MDA-MB-435s cells were plated on a 24-well plate (1 × 10^5 cells/well), grown to an 80–90% confluent cell monolayer, and serum-starved for 24 hours. Wounds were scratched gently with tip of a plastic pipet and washed twice with PBS. Subsequently, HGF (0.625 nM) alone or coupled with peptides at the concentrations of 61.5 nM and 615 nM were added into the wells for 2 days treatment. Each well was photographed at 10 × magnification with light microscope before and after peptide treatment. The cell migration capabilities were assessed by calculating the width alteration of the wound area by Photoshop. The percentage of cell migration followed the equation: Percent migration=width before treatment-width after treatment/width before treatment×100%

[7] = system: MDA-MB-435s cells; test: Wound healing assay without HGF (non-specific inhibition); assay type: cell-based, human; settings: 61.5 nM and 615 nM; one day, medium with 10% FBS; n = 3
Procedure: Wound healing assay was applied to evaluate the inhibitory effect of peptides to cell migration after one-day incubation with peptides at different concentrations in medium with 10% FBS.

[8] = target: T2, Recombinant human full length HGF (human, UniProt P14210 32-728); test: cell-based or functional assay
T2 sequence (P14210 32-728): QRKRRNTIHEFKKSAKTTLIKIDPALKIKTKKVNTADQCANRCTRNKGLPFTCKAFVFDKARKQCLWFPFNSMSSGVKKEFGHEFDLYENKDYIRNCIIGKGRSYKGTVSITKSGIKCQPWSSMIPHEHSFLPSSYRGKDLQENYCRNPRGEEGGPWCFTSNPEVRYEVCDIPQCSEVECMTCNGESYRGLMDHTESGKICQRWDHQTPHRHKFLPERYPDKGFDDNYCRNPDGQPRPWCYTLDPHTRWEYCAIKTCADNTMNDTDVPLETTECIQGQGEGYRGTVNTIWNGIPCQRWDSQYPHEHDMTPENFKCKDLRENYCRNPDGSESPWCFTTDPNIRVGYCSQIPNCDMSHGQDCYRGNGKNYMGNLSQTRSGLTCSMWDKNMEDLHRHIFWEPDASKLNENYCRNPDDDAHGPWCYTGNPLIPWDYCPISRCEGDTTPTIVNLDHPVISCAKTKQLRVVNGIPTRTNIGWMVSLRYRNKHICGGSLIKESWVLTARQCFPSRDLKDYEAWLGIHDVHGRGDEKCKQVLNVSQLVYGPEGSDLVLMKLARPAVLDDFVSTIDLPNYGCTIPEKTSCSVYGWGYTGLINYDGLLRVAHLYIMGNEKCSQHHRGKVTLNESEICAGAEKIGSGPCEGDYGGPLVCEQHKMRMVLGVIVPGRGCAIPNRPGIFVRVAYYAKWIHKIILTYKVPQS

[9] = target: T2, Recombinant human full length HGF; test: SPR; Biacore X100; HGF immobilised on a CM5 chip by amine coupling (2000 RU); peptide 0 to 100 μM in HBS-EP pH 7.4, 30 μL/min, 2 minutes injection, 8 minutes dissociation; settings: both partners purified

T1 sequence (P14210 32-728): as above

Question: What does the source list for HRGLKWEIVPWSGCG [HGP-1]?
Answer: kon ([1]; HBS-EP pH 7.4, 30 μL/min, 2 min injection, read-out: ka): 698 M⁻¹ s⁻¹; kb ([1]; HBS-EP pH 7.4, 8 min dissociation, printed kb): 0.001243 s⁻¹; IC50 ([2]; 48 h): 496 µM; cytotoxicity to cell proliferation in HGF-free environment [3]: did not exhibit detectable cytotoxicity

Question: How did the “binding to HGF in washed group” value [4] turn out when TLYEVDLREWCAGIVG [HGP-2] was run?
Answer: had an obvious reduction

Question: What about the “RFU relative to SP-H1 coated well” value [5] of the same molecule?
Answer: 700 times

Question: What about the “inhibitory effect on cell proliferation” value ([2]; 61.5 nM, 615 nM, 3.075 μM, HGF, 4-day treatment, n = 3) of the same molecule?
Answer: inhibited

Question: And the “inhibitory effect on cell migration” value [6]?
Answer: inhibited; also recorded: displayed a similar effect on MDA-MB-435s

Question: And the “inhibitory effect on migration without HGF” value [7]?
Answer: no obvious inhibitory effect

Question: For TYFTWWELSPGCEEH [HGP-3], which “binding capability to HGF when displayed on the surface of bacteria, compared with HGP-2” value ([4]; flow cytometry) is on record?
Answer: higher binding capability to HGF compared with HGP-2

Question: What about the “binding to HGF in washed group” value [4] of the same molecule?
Answer: bound to their targets as well as the regular ones

B1: HGF binding peptide-1, soluble synthetic peptide (peptide)
peptide: {FITC}-HRGLKWEIVPWSGCG
notes: the peptide of bacteria clone 1, synthesized free of bacteria; The methods say in general that FITC was labeled at the N-terminal of the peptides; also called HGP-1; FITC-labeled HGP-1; source: synthetic peptide (Shanghai Bootech Bioscience & Technology Co., Ltd.)
Question: Which “IC50 of inhibition of HGF (1 nM)-mediated A549 proliferation, MTT assay, 4 days” value [8] does the source give for B1 here?
Answer: 496 µM

Question: And the Kd [9]?
Answer: 1.73 µM

Question: What about the koff [9] of the same molecule?
Answer: 0.00124 s⁻¹

Question: What about the kon [9] of the same molecule?
Answer: 698 M⁻¹ s⁻¹

Reference: article PMC4745783, “The HGF inhibitory peptide HGP-1 displays promising in vitro and in vivo efficacy for targeted cancer therapy” (Oncotarget, 2015)
